Measurements taken from ChEMBL document CHEMBL6177928, “Probing structural requirements for thiazole-based mimetics of sunitinib as potent VEGFR-2 inhibitors” (RSC Med Chem, 2025).
Blank lines part the entries; values can stand above or below the compound they belong to. The source made the active and inactive calls. The rule behind the calls is not given here.

How the values were obtained:
HeLa [1] = test: cells; details: Homo sapiens, 48 h
Description: Antitumor activity against human HeLa cells assessed as inhibition of cell viability incubated for 48 hrs by MTT assay

HEp-2 = test: cells; details: Homo sapiens, HEp-2, 48 h
Description: Antitumor activity against human HEp-2 cells assessed as inhibition of cell viability incubated for 48 hrs by MTT assay

HCT-116 [2] = test: cells; details: Homo sapiens, HCT-116, 48 h
Description: Antitumor activity against human HCT-116 cells assessed as inhibition of cell viability incubated for 48 hrs by MTT assay

MCF7 [3] = test: cells; details: Homo sapiens, MCF7, 48 h
Description: Antitumor activity against human MCF7 cells assessed as inhibition of cell viability incubated for 48 hrs by MTT assay

HepG2 = test: cells; details: Homo sapiens, HepG2, 48 h
Description: Antitumor activity against human HepG2 cells assessed as inhibition of cell viability incubated for 48 hrs by MTT assay

[4] = Cytotoxicity against human WISH cells incubated for 48 hrs by MTT assay; assay type: toxicity, cell-based
Ehrlich [5] = test: Antitumor activity against mouse EAC cells xenografted in Swiss albino mouse assessed as reduction in tumor volume at 10 mg/kg, ip measured after 5 to 20 days; assay type: functional, organism-based; details: time 5-20 day
HeLa [6] = test: Induction of apoptosis in human HeLa cells assessed as necrotic cells incubated for 24 hrs by Annexin-V-FITC/PI staining based flow cytometry analysis (reference value: 1.12 %); assay type: functional
HCT-116 [7] = test: Induction of apoptosis in human HCT-116 cells assessed as late apoptotic cells incubated for 24 hrs by Annexin-V-FITC/PI staining based flow cytometry analysis (reference value: 0.16%); assay type: functional
HCT-116 [8] = test: Induction of cell cycle arrest in human HCT-116 cells assessed as accumulation of cells at G2/M phase measured after 24 hrs by PI/Rnase staining based flow cytometry analysis (reference value: 17.66 %); assay type: functional
HCT-116 [9] = test: Induction of cell cycle arrest in human HCT-116 cells assessed as accumulation of cells at G1 phase measured after 24 hrs by PI/Rnase staining based flow cytometry analysis (reference value: 47.28%); assay type: functional
HeLa [10] = test: Induction of apoptosis in human HeLa cells assessed as late apoptotic cells incubated for 24 hrs by Annexin-V-FITC/PI staining based flow cytometry analysis (reference value: 0.13 %); assay type: functional
MCF7 [11] = test: Induction of apoptosis in human MCF7 cells assessed as late apoptotic cells incubated for 24 hrs by Annexin-V-FITC/PI staining based flow cytometry analysis (reference value: 0.21%); assay type: functional
MCF7 [12] = test: Induction of cell cycle arrest in human MCF7 cells assessed as accumulation of cells at S phase measured after 24 hrs by PI/Rnase staining based flow cytometry analysis (reference value: 28.77 %); assay type: functional
HeLa [13] = test: Induction of apoptosis in human HeLa cells assessed as early apoptotic cells incubated for 24 hrs by Annexin-V-FITC/PI staining based flow cytometry analysis (reference value: 0.41 %); assay type: functional
WI-38 = test: Cytotoxicity against human WI-38 cells up to 50 uM incubated for 48 hrs by MTT assay; assay type: toxicity, cell-based; details: wi-38, 48 h
[14] = Cytotoxicity against human WI-38 cells incubated for 48 hrs by MTT assay; assay type: toxicity, cell-based
MCF7 [15] = test: Induction of apoptosis in human MCF7 cells assessed as necrotic cells incubated for 24 hrs by Annexin-V-FITC/PI staining based flow cytometry analysis (reference value: 1.57%); assay type: functional
MCF7 [16] = test: Induction of apoptosis in human MCF7 cells assessed as early apoptotic cells incubated for 24 hrs by Annexin-V-FITC/PI staining based flow cytometry analysis (reference value: 0.51%); assay type: functional
HCT-116 [17] = test: Induction of cell cycle arrest in human HCT-116 cells assessed as accumulation of cells at S phase measured after 24 hrs by PI/Rnase staining based flow cytometry analysis (reference value: 17.66 %); assay type: functional
HCT-116 [18] = test: Induction of apoptosis in human HCT-116 cells assessed as early apoptotic cells incubated for 24 hrs by Annexin-V-FITC/PI staining based flow cytometry analysis (reference value: 0.44%); assay type: functional
MCF7 [19] = test: Induction of cell cycle arrest in human MCF7 cells assessed as accumulation of cells at G1 phase measured after 24 hrs by PI/Rnase staining based flow cytometry analysis (reference value: 56.37%); assay type: functional
HeLa [20] = test: Induction of cell cycle arrest in human HeLa cells assessed as accumulation of cell debris measured after 24 hrs by PI/Rnase staining based flow cytometry analysis (reference value: 1.33%); assay type: functional
MCF7 [21] = test: Induction of cell cycle arrest in human MCF7 cells assessed as accumulation of cell debris measured after 24 hrs by PI/Rnase staining based flow cytometry analysis (reference value: 1.61%); assay type: functional
HeLa [22] = test: Induction of cell cycle arrest in human HeLa cells assessed as accumulation of cells at G1 phase measured after 24 hrs by PI/Rnase staining based flow cytometry analysis (reference value: 52.69 %); assay type: functional
HCT-116 [23] = test: Induction of apoptosis in human HCT-116 cells assessed as necrotic cells incubated for 24 hrs by Annexin-V-FITC/PI staining based flow cytometry analysis (reference value: 1.34%); assay type: functional
HeLa [24] = test: Induction of cell cycle arrest in human HeLa cells assessed as accumulation of cells at S phase measured after 24 hrs by PI/Rnase staining based flow cytometry analysis (reference value: 31.04 %); assay type: functional
MCF7 [25] = test: Induction of cell cycle arrest in human MCF7 cells assessed as accumulation of cells at G2/M phase measured after 24 hrs by PI/Rnase staining based flow cytometry analysis (reference value: 14.86 %); assay type: functional
WISH = test: Cytotoxicity against human WISH cells at up to 50 uM incubated for 48 hrs by MTT assay; assay type: toxicity, cell-based
HeLa [26] = test: Induction of cell cycle arrest in human HeLa cells assessed as accumulation of cells at G2/M phase measured after 24 hrs by PI/Rnase staining based flow cytometry analysis (reference value: 16.27 %); assay type: functional
HCT-116 [27] = test: Induction of cell cycle arrest in human HCT-116 cells assessed as accumulation of cell debris measured after 24 hrs by PI/Rnase staining based flow cytometry analysis (reference value: 1.33%); assay type: functional
Ehrlich [28] = test: Antitumor activity against mouse EAC cells xenografted in Swiss albino mouse assessed as tumor growth inhibition at 10 mg/kg, ip measured after 10 to 20 days; assay type: functional; details: read-out: TGI, time 10-20 day

Structure (SMILES): N#Cc1sc(Nc2ccccc2)nc1NC(=O)CNNCC(=O)c1cc2ccccc2oc1=O
IC50 (HeLa [1]): 45.5 µM
IC50 (HEp-2): 67.2 µM
IC50 (HCT-116 [2]): 37.6 µM
IC50 (MCF7 [3]): 34.1 µM
IC50 (HepG2): 49.4 µM

Structure (SMILES): CC(=O)N1CCN(CC(=O)Nc2nc(Nc3ccccc3)sc2C#N)CC1
IC50 (HeLa [1]): 74.5 µM
IC50 (HEp-2): 89 µM
IC50 (HCT-116 [2]): 65.2 µM
IC50 (MCF7 [3]): 61.9 µM
IC50 (HepG2): 78.4 µM

Structure (SMILES): N#Cc1sc(Nc2ccccc2)nc1NC(=O)CNNC(=O)c1ccc([N+](=O)[O-])cc1
IC50 (HeLa [1]): 49.8 µM
IC50 (HEp-2): 80.4 µM
IC50 (HCT-116 [2]): 55.2 µM
IC50 (MCF7 [3]): 43.2 µM
IC50 (HepG2): 57.3 µM

Structure (SMILES): N#Cc1sc(Nc2ccccc2)nc1N1C(=N)SCC1=O
IC50 (HeLa [1]): 31.4 µM
IC50 (HEp-2): 69.5 µM
IC50 (HCT-116 [2]): 44.1 µM
IC50 (MCF7 [3]): 22.5 µM
IC50 (HepG2): 35.3 µM

Structure (SMILES): CCN(CC)CCNC(=O)c1c(C)[nH]c(/C=C2\C(=O)Nc3ccc(F)cc32)c1C [SUNITINIB]
IC50 (HeLa [1]): 7.48 µM
IC50 (HEp-2): 7.58 µM
IC50 (HCT-116 [2]): 8.53 µM
IC50 (MCF7 [3]): 5.19 µM
IC50 (HepG2): 12.3 µM

Structure (SMILES): N#Cc1sc(Nc2ccccc2)nc1NC(=O)CNNCC(=O)c1ccc(Cl)cc1
IC50 at 48 h [4]: 77.2 µM
Activity (Ehrlich [5]): Active
Activity (HeLa [6]): 2.66%
Activity (HCT-116 [7]): 8.29%
IC50 (HeLa [1]): 10.6 µM
Activity (HCT-116 [8]): 16.05%
Activity (HCT-116 [9]): 51.96%
Activity (HeLa [10]): 12.35%
Activity (MCF7 [11]): 19.17%
Activity (MCF7 [12]): 23.84%
Activity (HeLa [13]): 19.17%
Activity (WI-38): Non-toxic
IC50 at 48 h [14]: 60.8 µM
Activity (MCF7 [15]): 4.47%
Activity (MCF7 [16]): 6.22%
IC50 (HEp-2): 26.9 µM
Activity (HCT-116 [17]): 31.99%
Activity (HCT-116 [18]): 21.42%
IC50 (HCT-116 [2]): 11.6 µM
Activity (MCF7 [19]): 63.61%
Activity (HeLa [20]): 2.17%
Activity (MCF7 [21]): 1.58%
Activity (HeLa [22]): 43.64%
Activity (HCT-116 [23]): 2.2%
Activity (HeLa [24]): 41.19%
IC50 (MCF7 [3]): 13.3 µM
Activity (MCF7 [25]): 12.55%
IC50 (HepG2): 15.2 µM
Activity (WISH): Non-toxic
Activity (HeLa [26]): 15.23%
Activity (HCT-116 [27]): 2.25%
inhibition in vivo at 10 mg/kg (Ehrlich [28]): > 50%

Structure (SMILES): N#Cc1sc(Nc2ccccc2)nc1NC(=O)CN1CCN(Cc2ccccc2)CC1
IC50 (HeLa [1]): 53.2 µM
IC50 (HEp-2): 82.5 µM
IC50 (HCT-116 [2]): 56.9 µM
IC50 (MCF7 [3]): 45.3 µM
IC50 (HepG2): 61.5 µM

Structure (SMILES): N#Cc1sc(Nc2ccccc2)nc1Nc1cnc(N)s1
IC50 at 48 h [4]: 82.7 µM
IC50 (HeLa [1]): 14 µM
Activity (WI-38): Non-toxic
IC50 at 48 h [14]: > 100 µM
IC50 (HEp-2): 35.2 µM
IC50 (HCT-116 [2]): 19.7 µM
IC50 (MCF7 [3]): 9.67 µM
IC50 (HepG2): 18.5 µM
Activity (WISH): Non-toxic

Further compounds by falling IC50 (HeLa [1]), results first:

IC50 (HeLa [1]): 69.8 µM
IC50 (HEp-2): 92.2 µM
IC50 (HCT-116 [2]): 68.6 µM
IC50 (MCF7 [3]): 50.4 µM
IC50 (HepG2): 74.3 µM
Structure (SMILES): N#Cc1sc(Nc2ccccc2)nc1NC(=O)CNNC(=O)c1ccccc1

IC50 (HeLa [1]): 67.8 µM
IC50 (HEp-2): 94.7 µM
IC50 (HCT-116 [2]): 70.5 µM
IC50 (MCF7 [3]): 52.7 µM
IC50 (HepG2): 73.2 µM
Structure (SMILES): CN1CCN(CC(=O)Nc2nc(Nc3ccccc3)sc2C#N)CC1

IC50 (HeLa [1]): 43.4 µM
IC50 (HEp-2): 49.1 µM
IC50 (HCT-116 [2]): 34.9 µM
IC50 (MCF7 [3]): 35.6 µM
IC50 (HepG2): 46.1 µM
Structure (SMILES): N#Cc1sc(Nc2ccccc2)nc1NC(=O)CNNCC(=O)c1ccc(Br)cc1

IC50 (HeLa [1]): 38.5 µM
IC50 (HEp-2): 73.5 µM
IC50 (HCT-116 [2]): 51.7 µM
IC50 (MCF7 [3]): 19.1 µM
IC50 (HepG2): 42.4 µM
Structure (SMILES): N#Cc1sc(Nc2ccccc2)nc1NC(=O)CN1CCN(c2ccccc2)CC1
